Experimental data as given in US20030073744A1, “Agent for enhancing cerebral acetylcholine release” (priority 1999, published 2003).

Experiments:
aged Wistar rats = assay: Test of the ameliorating effect of impaired circadian rhythm (food-motivated anticipatory activity); assay type: in vivo, rat; conditions: 30 and 100 mg/kg orally once daily for 7 consecutive days, FIG. 5
Protocol: Test animals: Male Wistar rats at 9 weeks of age (young group) and around 30 months of age (aged group).
Test method: Animals were individually housed and had free access to food and water. After fasting for 24 hours (Day 0), feeding was restricted to only 1 hour/day from 13:30 for 6 consecutive days. Food was again withheld on Day 7, and food-motivated circadian anticipatory activity was investigated. 1-p-Anisoyl-2-pyrrolidinone at 30 and 100 mg/kg or vehicle was orally administered immediately after the feeding time, once daily for 7 consecutive days. Spontaneous motor activity was measured in each home cage.

ACh release = assay: Test of the enhancing effect of ACh release (brain microdialysis in freely moving SHRSP); assay type: in vivo, rat; conditions: for enhancement of ACh release (percent change over baseline): perfused for 20 minutes through microdialysis probe (10^-7 to 10^-5 M)
Source text: Test animals: Male stroke-prone spontaneously hypertensive rats (SHRSP) at 13 weeks of age, which received 1% NaCl solution instead of water for 5 weeks prior to the experiment. Test method: SHRSP were anesthetized and a guide cannula was implanted into the thalamus, dorsal hippocampus and prefrontal cortex. After recovery, a concentric microdialysis probe was inserted into the guide cannula and perfused with normal Ringer solution containing 10^−5 M eserine (SIGMA, St. Louis, USA) at a constant flow rate of 2 μl/min under freely moving condition. […] The dialysates for every 20 minutes were collected and injected into the high-pressure liquid chromatography system to quantify extracellular ACh levels. ACh release was expressed as percent change over the average of three consecutive stable samples collected before drug perfusion.

SHRSP = assay: Test of improving effect of disturbed sleep pattern (EEG/EMG, REMS); assay type: in vivo, rat; conditions: 15 mg/kg orally twice daily over 5 consecutive days, FIG. 7
Source text: Test animals: Male SHRSP at 13 weeks of age, which received 1% NaCl solution instead of water over 5 weeks, and Wistar Kyoto rats (WKY) at the same age.
Test method: Animals were anesthetized, and electrodes for electroencephalogram (EEG) and a sensor for brain temperature were implanted into the cerebral cortex and electrodes for electromyogram (EMG) were implanted into the back cervical muscle. All variables were continuously recorded for 7 days, and the behavioral states of rats were classified into wakefulness, REMS, NREMS by analyzing the amplitude and frequency of EEG and EMG waves. 1-p-Anisoyl-2-pyrrolidinone at 15 mg/kg or vehicle was administered orally twice daily (morning and evening) over 5 consecutive days.

rats [1] = conditions: repeated oral administration over 4 weeks, up to 600 mg/kg
[2] = Acute toxicity after oral administration to rats (LD50); assay type: in vivo, rat; conditions: rat, in vivo
rats [3] = assay: as above; assay type: in vivo, rat; conditions: both sexes
[4] = dorsal hippocampus of SHRSP, FIG. 2
[5] = prefrontal cortex of SHRSP, FIG. 3

## COc1ccc(C(=O)N2CCCC2=O)cc1 [1-p-anisoyl-2-pyrrolidinone, 1-p-Anisoyl-2-pyrrolidinone]
Aged Wistar rats
  impaired food-motivated anticipatory activity: significantly ameliorated
ACh release; any cerebral regions (thalamus, dorsal hippocampus, prefrontal cortex) of SHRSP
  effect on ACh release: not observed
SHRSP
  reduced diurnal REMS: ameliorated

## COc1ccc(C(=O)O)cc1 [p-anisic acid]
Rats [1]
  sub-acute toxicity, such as lethality and abnormality in hematological, hematobiochemical and toxipathological tests: not observed
[2]; female animals
  LD50: 2120 mg/kg
[2]; male animals
  LD50: 1810 mg/kg
ACh release; [4]
  enhancement of ACh release (percent change over baseline): 51%
ACh release; [5]
  enhancement of ACh release (percent change over baseline): 61%
ACh release; thalamus of SHRSP, FIG. 1
  enhancement of ACh release (percent change over baseline): 22%

## COc1ccc(C(=O)NCCCC(=O)O)cc1 [N-anisoyl-GABA, N-anisoyl-γ-aminobutyric acid]
Rats [1]
  sub-acute toxicity, such as lethality and abnormality in hematological, hematobiochemical and toxipathological tests: not observed
Rats [3]
  acute toxicity (LD50 values): more than 5,000 mg/kg
ACh release; [4]
  enhancement of ACh release (percent change over baseline): 48%
ACh release; [5]
  enhancement of ACh release (percent change over baseline): 70%
ACh release; thalamus of SHRSP, FIG. 1
  enhancement of ACh release (percent change over baseline): 32%
